Species: Rattus norvegicus
Experiment: Open TG-GATES - Regimen: Single
Assay type: toxicity, organism-based, Sprague-Dawley
Design: regimen Single, gender Male, age 6 weeks
Details: in vivo, po, 60 mg/kg, route gavage, dose level High; for APTT / Bas / Eos / Fbg / Hb / Ht / Lym / MCH / MCHC / MCV / Mono / Neu / PT / Plat / RBC / WBC: tissue Blood; for KIDNEY_L / KIDNEY_R / KIDNEY_TOTAL: tissue Kidney; for LIVER: tissue Liver; for ALT / AST / BUN / CRE / Cl / DBIL / GLC / IP / LDH / Na / RALB / TBIL / TC / TG / TP / gamma-GTP: tissue Plasma

CC/C(=C(\c1ccccc1)c1ccc(OCCN(C)C)cc1)c1ccccc1 [TAMOXIFEN]
TERMINAL_BW (3 h): 193.1 g
APTT (3 h): 16.1 s
Bas (3 h): 0%
Eos (3 h): 1%
Fbg (3 h): 259.8 mg/dL
Hb (3 h): 13.1 g/dL
Ht (3 h): 39.5%
Lym (3 h): 77.6%
MCH (3 h): 21.8 pg
MCHC (3 h): 33.3%
MCV (3 h): 65.7 fL
Mono (3 h): 3.8%
Neu (3 h): 17.4%
PT (3 h): 11.9 s
Plat (3 h): 112.1 x10_4/uL
RBC (3 h): 601.4 x10_4/ul
WBC (3 h): 80.5 x10_2/uL
KIDNEY_L (3 h): 0.9 g
KIDNEY_R (3 h): 0.9 g
KIDNEY_TOTAL (3 h): 1.7 g
LIVER (3 h): 8.3 g
ALT (3 h): 50.8 IU/L
AST (3 h): 82.6 IU/L
BUN (3 h): 9.4 mg/dL
CRE (3 h): 0.2 mg/dL
Cl (3 h): 106.8 meq/L
DBIL (3 h): 0.026 mg/dL
GLC (3 h): 169.2 mg/dL
IP (3 h): 9.5 mg/dL
LDH (3 h): 77 IU/L
Na (3 h): 140.8 meq/L
RALB (3 h): 2.6 g/dL
TBIL (3 h): 0.05 mg/dL
TC (3 h): 80 mg/dL
TG (3 h): 106.2 mg/dL
TP (3 h): 5.6 g/dL
gamma-GTP (3 h): 1 IU/L
TERMINAL_BW (6 h): 193.6 g
Bas (6 h): 0%
Eos (6 h): 0.8%
Fbg (6 h): 252.6 mg/dL
Hb (6 h): 12.8 g/dL
Lym (6 h): 78.8%
MCH (6 h): 21.5 pg
MCHC (6 h): 33.4%
MCV (6 h): 64.3 fL
Mono (6 h): 2.6%
Neu (6 h): 17.6%
PT (6 h): 12.2 s
Plat (6 h): 112.7 x10_4/uL
RBC (6 h): 595.6 x10_4/ul
WBC (6 h): 59.9 x10_2/uL
KIDNEY_L (6 h): 0.8 g
KIDNEY_R (6 h): 0.9 g
KIDNEY_TOTAL (6 h): 1.7 g
LIVER (6 h): 7.5 g
ALT (6 h): 38.8 IU/L
AST (6 h): 74.2 IU/L
BUN (6 h): 7.6 mg/dL
CRE (6 h): 0.2 mg/dL
Cl (6 h): 109.4 meq/L
DBIL (6 h): 0.012 mg/dL
GLC (6 h): 175 mg/dL
IP (6 h): 10.4 mg/dL
LDH (6 h): 54.4 IU/L
Na (6 h): 141.8 meq/L
RALB (6 h): 2.5 g/dL
TBIL (6 h): 0.042 mg/dL
TC (6 h): 76.4 mg/dL
TG (6 h): 56.2 mg/dL
TP (6 h): 5.2 g/dL
gamma-GTP (6 h): 1.2 IU/L
TERMINAL_BW (9 h): 193.9 g
APTT (9 h): 14.5 s
Bas (9 h): 0%
Eos (9 h): 0.8%
Fbg (9 h): 274.6 mg/dL
Hb (9 h): 13 g/dL
Ht (9 h): 38.6%
Lym (9 h): 79%
MCH (9 h): 22.2 pg
MCHC (9 h): 33.7%
MCV (9 h): 65.8 fL
Mono (9 h): 2.4%
Neu (9 h): 17.4%
PT (9 h): 12.1 s
Plat (9 h): 121.3 x10_4/uL
RBC (9 h): 586.6 x10_4/ul
WBC (9 h): 71.5 x10_2/uL
KIDNEY_L (9 h): 0.8 g
KIDNEY_R (9 h): 0.8 g
KIDNEY_TOTAL (9 h): 1.7 g
LIVER (9 h): 7.3 g
ALT (9 h): 43.8 IU/L
AST (9 h): 75.2 IU/L
BUN (9 h): 8.4 mg/dL
CRE (9 h): 0.2 mg/dL
Cl (9 h): 107 meq/L
DBIL (9 h): 0.01 mg/dL
GLC (9 h): 184.6 mg/dL
IP (9 h): 11.2 mg/dL
LDH (9 h): 59.8 IU/L
Na (9 h): 141.6 meq/L
RALB (9 h): 2.5 g/dL
TBIL (9 h): 0.044 mg/dL
TC (9 h): 79.4 mg/dL
TG (9 h): 39 mg/dL
TP (9 h): 5.3 g/dL
gamma-GTP (9 h): 1.4 IU/L
TERMINAL_BW (24 h): 193.1 g
APTT (24 h): 15.8 s
Bas (24 h): 0.2%
Eos (24 h): 1.2%
Fbg (24 h): 260.2 mg/dL
Hb (24 h): 13.2 g/dL
Ht (24 h): 39.4%
Lym (24 h): 80.8%
MCH (24 h): 21.5 pg
MCHC (24 h): 33.4%
MCV (24 h): 64.5 fL
Mono (24 h): 3.2%
Neu (24 h): 14.2%
PT (24 h): 12.9 s
Plat (24 h): 113.6 x10_4/uL
RBC (24 h): 611.2 x10_4/ul
WBC (24 h): 91.3 x10_2/uL
KIDNEY_L (24 h): 0.9 g
KIDNEY_R (24 h): 0.9 g
KIDNEY_TOTAL (24 h): 1.7 g
LIVER (24 h): 8.4 g
ALT (24 h): 45 IU/L
AST (24 h): 71.6 IU/L
BUN (24 h): 12.8 mg/dL
CRE (24 h): 0.2 mg/dL
Cl (24 h): 109.4 meq/L
DBIL (24 h): 0.018 mg/dL
GLC (24 h): 185.8 mg/dL
IP (24 h): 8.3 mg/dL
LDH (24 h): 54 IU/L
Na (24 h): 143.2 meq/L
RALB (24 h): 2.6 g/dL
TBIL (24 h): 0.044 mg/dL
TC (24 h): 51.4 mg/dL
TG (24 h): 81 mg/dL
TP (24 h): 5.4 g/dL
gamma-GTP (24 h): 1 IU/L

From ChEMBL document CHEMBL3885861, “Open TG-GATES”
